Reference: the supplement of paper PMC7840683

Test system: HepaRG
Test: LDH release cytotoxicity, % of total lysis control; higher = more cytotoxic
Settings: 48 h
Outline: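 Percent cytotoxicity was scaled between on-plate vehicle and total lysis controls, then averaged over duplicate wells. The cells were single-lot HepaRG on collagen I-coated 96-well plates, exposed for 48 h to eight-point half-log test chemical series topping at 100 µM in serum-free induction medium with 0.5% DMSO. Total lysis wells got 0.1% Triton X, and LDH in 50 µL spent medium was read as resorufin fluorescence (CytoTox-ONE, Tecan Safire).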

CC(C)(O)c1ccc(CNC(=O)c2cccnc2Oc2ccc3nonc3c2)cc1
Settings	LDH release cytotoxicity [%]
0.03162 µM	-0.138
0.1 µM	-0.0235
0.3162278 µM	-1.43
1 µM	-1.1
3.16228 µM	-0.724
10 µM	-0.975
31.6228 µM	-1.98
100 µM	-2.05

CC(C)(O)c1coc(S(=O)(=O)NC(=O)Nc2c3c(cc4c2CCC4)CCC3)c1
Settings	LDH release cytotoxicity [%]
0.03162 µM	-0.467
0.1 µM	-0.342
0.3162278 µM	-0.339
1 µM	0.236
3.16228 µM	0.788
10 µM	0.179
31.6228 µM	0.394
100 µM	1.465

CC(C)(O)c1cnn2c(-c3ccc(F)c(-c4c(F)cccc4C#N)c3)cnc2n1
Settings	LDH release cytotoxicity [%]
0.03162 µM	-0.882
0.1 µM	-1.19
0.3162278 µM	-1.7
1 µM	-1.5
3.16228 µM	-1.51
10 µM	-1.39
31.6228 µM	1.16
100 µM	8.979

CC(C)c1cccc(C(C)C)c1NC(=O)NS(=O)(=O)c1cc(C(C)(C)O)co1
Settings	LDH release cytotoxicity [%]
0.03162 µM	0.635
0.1 µM	0.0343
0.3162278 µM	-0.878
1 µM	-1.57
3.16228 µM	-1.32
10 µM	-1.29
31.6228 µM	-1.24
100 µM	-0.335

CC(Cc1ccc(OCC(=O)O)cc1)NCC(O)c1csc(C(F)(F)F)n1 (stereo not drawn)
Settings	LDH release cytotoxicity [%]
0.03162 µM	-1.76
0.1 µM	-2.85
0.3162278 µM	-1.56
1 µM	-1.12
3.16228 µM	-1.22
10 µM	-0.599
31.6228 µM	0.839
100 µM	0.309

Cc1nc(C)nc(N2CC(C)N(c3ccnc(C(C)O)n3)C(C)C2)n1 (stereo not drawn)
Settings	LDH release cytotoxicity [%]
0.01581 µM	-1.17
0.05 µM	-0.963
0.1581139 µM	-1.7
0.5 µM	-1.95
1.5811388 µM	-0.835
5 µM	-1.01
15.8114 µM	-0.652
50 µM	0.767

Cc1c(-c2cccnc2)c2ccccc2n1CCCCC(=O)O
Settings	LDH release cytotoxicity [%]
0.03162 µM	-1.92
0.1 µM	-0.948
0.3162278 µM	-2.28
1 µM	-1.9
3.16228 µM	-1.67
10 µM	-1.54
31.6228 µM	-1.64
100 µM	4.56

Cc1cc2c(cc1C(F)(F)F)N(C(=O)Nc1ccc(Oc3cccnc3C)nc1)CC2
Settings	LDH release cytotoxicity [%]
0.0295673 µM	-7.63
0.0935 µM	-7.9
0.295673 µM	-7.01
0.935 µM	-8.47
2.95673 µM	-7.66
9.35 µM	-6.19
29.5673 µM	68.937
93.5 µM	72.5

Cc1ccc2oc(CN(Cc3ccccc3)C(=O)Nc3c(F)cc(F)cc3F)c(-c3ccc(Cl)cc3)c2c1
Settings	LDH release cytotoxicity [%]
0.0279862 µM	-1.59
0.0885 µM	-1.08
0.279862 µM	-1.56
0.885 µM	-1.22
2.7986157 µM	-1.44
8.85 µM	-1.09
27.9862 µM	-0.962
88.5 µM	2.85

Cc1nc(-c2ccccn2)ncc1C(=O)Nn1cc(C)c2cc(F)ccc21
Settings	LDH release cytotoxicity [%]
0.0295673 µM	-0.89
0.0935 µM	-1.26
0.295673 µM	-0.0753
0.935 µM	-1.71
2.95673 µM	-2.8
9.35 µM	-2.48
29.5673 µM	-2.73
93.5 µM	-1.5

Cc1nc(-c2ccc3c(c2)CCN(CCC2CCC(NC(=O)C=Cc4ccc(F)cc4)CC2)CC3)no1 (stereo not drawn)
Settings	LDH release cytotoxicity [%]
0.03162 µM	0.287
0.1 µM	-0.381
0.3162278 µM	-0.128
1 µM	-0.7917
3.16228 µM	-0.696
10 µM	-0.292
31.6228 µM	-0.793
100 µM	-0.791

Cc1nccn1-c1ccc(Sc2cccc(C3(C(N)=O)CCOCC3)c2)cc1
Settings	LDH release cytotoxicity [%]
0.03162 µM	-2.79
0.1 µM	-3.28
0.3162278 µM	-2.87
1 µM	-3.4
3.16228 µM	-2.44
10 µM	7.65
31.6228 µM	31.9
100 µM	42.52

CCC(=CC(N=O)C(N)=O)C(C)[N+](=O)[O-] (stereo not drawn)
Settings	LDH release cytotoxicity [%]
0.03162 µM	-0.841
0.1 µM	-1.13
0.3162278 µM	-0.143
1 µM	-0.487
3.16228 µM	-0.165
10 µM	0.0592
31.6228 µM	0.411
100 µM	1.12

CCC(C)N(C)C(=O)c1cc2ccccc2c(-c2ccccc2Cl)n1 (stereo not drawn)
Settings	LDH release cytotoxicity [%]
0.02008 µM	-1.37
0.0635 µM	-2.28
0.200805 µM	-3.22
0.635 µM	-3.04
2.00805 µM	-2.99
6.35 µM	-2.9
20.0805 µM	-1.43
63.5 µM	7.06

CCc1nn(C2CCCCC2)c2cc(C3(C#N)CCC(C(=O)O)CC3)ccc12 (stereo not drawn)
Settings	LDH release cytotoxicity [%]
0.03162 µM	-0.818
0.1 µM	-1.01
0.3162278 µM	-0.56
1 µM	-1.9
3.16228 µM	-1.26
10 µM	-1.43
31.6228 µM	1.5
100 µM	7.65

CCC1CCC(NCc2cc3c(cc2OC)C2CC2C(=O)N3C)C(c2ccccc2)N1 (stereo not drawn)
Settings	LDH release cytotoxicity [%]
0.03162 µM	-1.16
0.1 µM	-1.78
0.3162278 µM	-0.445
1 µM	-1.5
3.16228 µM	-0.96
10 µM	-0.794
31.6228 µM	0.439
100 µM	7.84

CCCCc1nc2cccnc2n1Cc1ccc(-c2ccccc2-c2nnn[nH]2)cc1
Settings	LDH release cytotoxicity [%]
0.03162 µM	-0.82
0.1 µM	-1.42
0.3162278 µM	-0.874
1 µM	-0.211
3.16228 µM	-0.956
10 µM	-0.404
31.6228 µM	-0.609
100 µM	1.6

CCCCC1CN(CC2CCOCC2)C(=O)OC12CCN(C1(C)CCN(C(=O)c3c(C)ncnc3C)CC1)CC2 (stereo not drawn)
Settings	LDH release cytotoxicity [%]
0.02846 µM	-1.26
0.09 µM	-1.45
0.284605 µM	-0.87
0.9 µM	-1.55
2.84605 µM	-1.48
9 µM	-1.68
28.4605 µM	-0.822
90 µM	-0.451

CCN(C(=O)c1cc(C)cc(OCC(C)Nc2ccncc2)c1)C(C)C (stereo not drawn)
Settings	LDH release cytotoxicity [%]
0.02135 µM	-1.12
0.0675 µM	-0.177
0.2134537 µM	-0.209
0.675 µM	0.1
2.13454 µM	-0.21
6.75 µM	-0.0445
21.345374 µM	0.884
67.5 µM	19

CCN(Cc1cccnc1)C(=O)c1cccc(Cl)c1C1(C)C(=O)N(Cc2ccc(OC)cc2OC)c2ccc(Cl)cc21 (stereo not drawn)
Settings	LDH release cytotoxicity [%]
0.02988 µM	-0.884
0.0945 µM	-1.62
0.298835 µM	-1.35
0.945 µM	-1.68
2.98835 µM	-2.31
9.45 µM	1.33
29.8835 µM	7.13
94.5 µM	11.6

CCn1nc(C)c2c1C(=O)NCC(c1ccc(O)cc1)=N2
Settings	LDH release cytotoxicity [%]
0.03162 µM	-0.976
0.1 µM	-1.16
0.3162278 µM	-0.653
1 µM	-0.0547
3.16228 µM	0.209
10 µM	0.546
31.6228 µM	1.6
100 µM	3.89

CCOC(=O)c1ccc(C2CCC(NCC(O)COc3ccc(O)c(NS(C)(=O)=O)c3)CC2)cc1 (stereo not drawn)
Settings	LDH release cytotoxicity [%]
0.03162 µM	-1.1
0.1 µM	-1.92
0.3162278 µM	-1.82
1 µM	-2.5
3.16228 µM	-1.76
10 µM	-1.05
31.6228 µM	-1.59
100 µM	-0.279

CCOC(=O)COc1ccc2c(c1)CC(NCC(O)c1cccc(Cl)c1)CC2 (stereo not drawn)
Settings	LDH release cytotoxicity [%]
0.02893 µM	-1.56
0.0915 µM	0.00613
0.289348 µM	-0.98
0.915 µM	-1.71
2.89348 µM	-1.72
9.15 µM	-1.13
28.9348 µM	1.91
91.5 µM	10.4

CCOc1cccc(-n2cc(C(=O)N3CCN(c4cc(C(=O)O)c5ccccc5c4)CC3)nc2-c2ccc(C)cc2)c1
Settings	LDH release cytotoxicity [%]
0.03162 µM	1.24
0.1 µM	-0.332
0.3162278 µM	0.167
1 µM	-0.486
3.16228 µM	-0.46
10 µM	-0.211
31.6228 µM	9.35
100 µM	44.3

CC[C@H](C)[C@@H](C(=O)O)n1sc2ccccc2c1=O
Settings	LDH release cytotoxicity [%]
0.03162 µM	-0.834
0.1 µM	-1.623
0.3162278 µM	-0.553
1 µM	-1.34
3.16228 µM	-1.12
10 µM	-0.759
31.6228 µM	-1.34
100 µM	0.0312

Cc1cc(F)ccc1-c1cc(N2CCC(O)C2CO)ncc1N(C)C(=O)C(C)(C)c1cc(C(F)(F)F)cc(C(F)(F)F)c1 (stereo not drawn)
Settings	LDH release cytotoxicity [%]
0.02577 µM	-0.371
0.0815 µM	-1.04
0.2577256 µM	-1.11
0.815 µM	-0.898
2.57726 µM	-1.2
8.15 µM	-1.08
25.7726 µM	12.91
81.5 µM	86.4
